How the values were obtained:
[1] = system: panelists; test: Quantitative sensory evaluation test of salty taste enhancement; assay type: in vivo, human
Description: After the test compound was dissolved, samples more acidic than a control containing no added test compound were adjusted, before further use, with NaOH to have a pH in a range of ±0.2 from the pH of the control to which no test compound was added.
The sensory evaluation scores were as follows, the control to which no test compound was added, i.e. a 0.5 g/dL sodium chloride solution: 0 points; a 0.75 g/dL sodium chloride solution: 5 points. The sensory evaluation was conducted on a scale ranging from −5 to 0 to 5, with n=5. The “initial taste” refers to the taste perceived by each panelist from the start of eating the sample to 2 seconds thereafter, while the term “middle/after taste” refers to that perceived by each panelist from 2 seconds on and after eating the same, i.e. perceived during the period including both the middle taste and the after taste. For the scoring, a linear scale method was used. In this method, the score was marked as a position on a straight line showing positions for scores ranging from −5˜0˜5. The panelists were persons who were engaged in the development of seasonings for foods for one year or longer in total, and who were capable of determining that the difference in the potency between γ-Glu-Cys-Gly and γ-Glu-Val-Gly each added to a umami taste and salty taste solution was around 10 times, while confirming the ability of these persons at regular intervals.

[2] = molecular target: T1, human CaSR (Homo sapiens, UniProt P41180, E1011Q); test: Evaluation of CaSR agonist activity (Ca2+ fluorescence, EC50); assay type: cell-based; conditions: comparison with other dipeptides
T1 construct: expressed in transfected cells; host or cells: 293E cells (EBNA1-expressing HEK293 cells, ATCC No. CRL-10852), transient transfection with Fugene6
T1 sequence (P41180 20-1078 E1011Q): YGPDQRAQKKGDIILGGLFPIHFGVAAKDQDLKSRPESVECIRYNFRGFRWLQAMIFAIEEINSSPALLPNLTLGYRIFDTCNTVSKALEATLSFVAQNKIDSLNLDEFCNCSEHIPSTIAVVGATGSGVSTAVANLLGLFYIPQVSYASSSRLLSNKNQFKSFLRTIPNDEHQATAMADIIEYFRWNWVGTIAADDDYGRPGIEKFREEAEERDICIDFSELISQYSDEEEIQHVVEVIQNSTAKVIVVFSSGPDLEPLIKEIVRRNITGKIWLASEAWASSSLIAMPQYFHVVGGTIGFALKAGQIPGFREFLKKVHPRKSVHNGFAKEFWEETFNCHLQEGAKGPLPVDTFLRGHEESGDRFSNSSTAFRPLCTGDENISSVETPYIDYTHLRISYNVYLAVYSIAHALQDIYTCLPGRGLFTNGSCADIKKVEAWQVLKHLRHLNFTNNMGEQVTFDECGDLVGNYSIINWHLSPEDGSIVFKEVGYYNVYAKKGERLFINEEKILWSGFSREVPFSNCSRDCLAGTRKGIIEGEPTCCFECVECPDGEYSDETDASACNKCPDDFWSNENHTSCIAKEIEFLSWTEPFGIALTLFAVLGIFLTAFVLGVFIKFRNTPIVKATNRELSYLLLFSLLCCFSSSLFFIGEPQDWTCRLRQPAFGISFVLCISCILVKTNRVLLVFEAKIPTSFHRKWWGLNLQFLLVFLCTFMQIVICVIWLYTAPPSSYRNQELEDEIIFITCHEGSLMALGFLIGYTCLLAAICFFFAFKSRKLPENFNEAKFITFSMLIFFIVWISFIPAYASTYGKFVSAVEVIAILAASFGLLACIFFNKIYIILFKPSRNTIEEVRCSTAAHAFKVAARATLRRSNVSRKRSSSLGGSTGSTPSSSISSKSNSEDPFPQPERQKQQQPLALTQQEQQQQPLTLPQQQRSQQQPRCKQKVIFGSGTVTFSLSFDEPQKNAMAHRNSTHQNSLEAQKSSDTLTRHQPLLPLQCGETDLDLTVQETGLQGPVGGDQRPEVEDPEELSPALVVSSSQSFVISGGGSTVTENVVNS
Description: The cells were seeded into a F25 flask at 3×10^6 cells/10 mL, and allowed to stand in a CO2 incubator (5% CO2, 37° C.) for 24 hours. Then, the cells were transfected with the human CaSR-expression plasmid hCaSR/pcDNA3.1 by using a transfection reagent Fugene6 (available from Roche Company). The cells were placed in a CO2 incubator for 6 to 7 hours, and then the cells were harvested by using DMEM/Ham's-F12 containing 10% fetal calf serum. Then, the cells were seeded into a poly-D-lysine-coated 96-well plate (BD-Biocoat) at 70,000 cells/well.
The plate was allowed to stand over 24 hours in a CO2 incubator, and then the culture medium was removed from the 96-well plate into which the cells were seeded. […] Then, the indicator was incorporated into the cells by allowing the plate to stand at 37° C. for one hour, and then at room temperature for 10 minutes.
Method for the Determination of EC50:
The differences between the maximum value and minimum value of the fluorescent intensity (RFU (Max-Min)) were determined by automatic calculation of FLEX Station before and after the addition of the compound. The percentage of activities was calculated, with the RFU (Max-Min) at the time when the maximum concentration of the compound added was defined to be 100%, and the RFU (Max-Min) at the time when the 0.1% BSA-containing assay buffer containing no test compound was defined to be 0%.

[3] = 0.004 g/dL in 0.5 g/dL NaCl, 0.5 g/dL NaCl = 0, 0.75 g/dL NaCl = 5, n=5

Structure (SMILES): CC[C@H](NC(=O)CC[C@H](N)C(=O)O)C(=O)O
- Sensory Evaluation Profile (salty taste) ([1]; 0.004 g/dL in 0.5 g/dL NaCl): The salty taste was enhanced
- Strength of Salty Taste Impartment, Initial Taste [1, 3]: 1.6 points
- Strength of Salty Taste Impartment, Middle/After Taste [1, 3]: 1.5 points
- Salty taste enhancement ability (in words) ([1]; comparison of γ-Glu-Val-Gly and γ-Glu-Abu): extremely well balanced salty taste enhancement
- CaSR effect and activity (in words) [2]: strong CaSR effect and activity comparable to that of γ-Glu-Cys

Source: patent US9844226B2 (AJINOMOTO CO., INC., priority 2009, dated 2017)
